Data from PMC4156305, “Structure Driven Design of Novel Human Ether-A-Go-Go-Related-Gene Channel (hERG1) Activators” (PLoS ONE, 2014).

Target: T1, hERG1 (Homo sapiens, UniProt Q12809)
T1 construct: expressed in transfected cells; host or cells: HEK 293
Assay: Whole cell patch-clamp of hERG1 currents in transfected HEK 293 cells
Format: cell-based
Design: Inactivation ΔV0.3: unit not given here
Conditions: for Activation V1/2 (mV): shift in voltage-dependence of activation; for Amplitude I/Icon: tail current relative to baseline; for Deactivation Δλ/λcon: deactivation time constant relative to baseline; for Inactivation ΔV0.3: shift in voltage-dependence of inactivation
Description: Transfected HEK cells on glass cover slips were placed in a chamber mounted on a modified stage of an inverted microscope. The chamber was superfused at a rate of 2 mL/min with a normal external solution. The extracellular solution contained (in mM) NaCl 140, KCl 5.4, CaCl2 1, MgCl2 1, HEPES 5, glucose 5.5, pH 7.4, with NaOH. Micropipettes were pulled from borosilicate glass capillary tubes on a programmable horizontal puller (Sutter Instruments, Novato, CA). Standard patch-clamp methods were used to measure the whole cell currents of hERG1 mutants expressed in HEK 293 cells using the AXOPATCH 200B amplifier (Axon Instruments). Unless otherwise indicated, tail currents were recorded when the voltage was returned to −50 mV from +50 mV. Further details on electrophysiological methods are collected in Methods S1.
Electrophysiology Protocol:
The pipette solution contained the following (at mM concentration): KCl 10, K-aspartate 110, MgCl2 5, Na2ATP 5, EGTA 10, HEPES 5, and CaCl2 1. The solution was adjusted to pH 7.2 with KOH. The extracellular solution contained the following (at mM concentration): NaCl 140, KCl 5.4, CaCl2 1, MgCl2 1, HEPES 5, and glucose 5.5. The solution was adjusted to pH 7.4 with NaOH. For IKr measurements, the whole cell configuration of the patch clamp method was used. The series resistance was less than 7
MΩ. The data were sampled at 1 kHz. The holding potential was -80 mV. The activation of hERG tail currents was induced by depolarization to a range of potentials from +50 to -100 mV in 10 mV steps for 1 second. This was followed by repolarization to -100 mV for 1 second to record the tail currents.
-100 mV, a -120 mV 1 second pre-pulse was applied to completely close the hERG channels before subsequent depolarization. All of the tail currents reported in this manuscript represent dofetilide-sensitive currents. The inactivation of hERG was measured by a previously reported triple-pulse protocol5, 6. The holding potential was -80 mV. The hERG channel was first depolarized to +50 mV for 1 second. Recovery from inactivation was achieved using a short pulse (a 10 ms hyperpolarization) to -120 mV, followed by the application of test pulses from -100 to 0 mV for 1 second in 10 mV steps.
A voltage of -100 mV was selected because it was on the flat part of the inactivation-voltage relationship. The methods employed are identical to ones previously reported. […]

[1] = Conc. 50 µM, listed as MC-I-159b

T1 sequence (Q12809 whole entry): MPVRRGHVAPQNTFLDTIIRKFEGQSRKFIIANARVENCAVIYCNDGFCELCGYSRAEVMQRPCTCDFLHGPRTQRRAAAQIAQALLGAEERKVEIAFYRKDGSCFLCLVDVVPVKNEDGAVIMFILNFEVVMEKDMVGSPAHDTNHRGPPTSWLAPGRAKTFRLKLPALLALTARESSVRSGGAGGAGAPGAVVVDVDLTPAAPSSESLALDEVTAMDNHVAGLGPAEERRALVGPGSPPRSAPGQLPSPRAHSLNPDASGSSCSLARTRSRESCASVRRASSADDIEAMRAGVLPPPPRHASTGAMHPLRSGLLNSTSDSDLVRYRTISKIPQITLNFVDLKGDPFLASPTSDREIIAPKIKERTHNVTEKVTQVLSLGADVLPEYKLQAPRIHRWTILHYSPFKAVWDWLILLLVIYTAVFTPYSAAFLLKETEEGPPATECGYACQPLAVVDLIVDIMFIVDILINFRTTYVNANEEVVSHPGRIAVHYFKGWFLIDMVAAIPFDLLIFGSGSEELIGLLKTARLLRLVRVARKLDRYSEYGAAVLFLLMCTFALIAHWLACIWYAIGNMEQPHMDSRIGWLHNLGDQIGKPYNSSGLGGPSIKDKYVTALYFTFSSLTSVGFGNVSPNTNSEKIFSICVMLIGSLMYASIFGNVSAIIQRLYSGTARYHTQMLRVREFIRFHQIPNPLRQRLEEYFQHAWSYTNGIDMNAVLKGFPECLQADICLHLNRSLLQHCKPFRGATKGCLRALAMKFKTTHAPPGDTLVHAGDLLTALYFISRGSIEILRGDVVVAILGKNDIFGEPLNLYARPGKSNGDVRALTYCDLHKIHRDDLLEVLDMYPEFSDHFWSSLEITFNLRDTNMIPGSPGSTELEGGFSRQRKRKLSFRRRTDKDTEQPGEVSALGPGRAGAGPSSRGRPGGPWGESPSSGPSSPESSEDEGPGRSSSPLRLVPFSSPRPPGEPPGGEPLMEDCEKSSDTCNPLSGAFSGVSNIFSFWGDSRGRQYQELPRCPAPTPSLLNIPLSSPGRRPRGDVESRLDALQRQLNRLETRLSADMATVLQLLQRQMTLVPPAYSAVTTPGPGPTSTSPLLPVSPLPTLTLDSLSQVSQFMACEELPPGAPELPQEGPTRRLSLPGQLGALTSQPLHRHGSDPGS

SMILES | Deactivation Δλ/λcon (Conc. 20 µM) | Activation V1/2 (mV) (Conc. 20 µM) | Inactivation ΔV0.3 (Conc. 20 µM) | Amplitude I/Icon (Conc. 20 µM) | Deactivation Δλ/λcon (Conc. 50 µM) | Activation V1/2 (mV) (Conc. 50 µM) | Inactivation ΔV0.3 (Conc. 50 µM) | Amplitude I/Icon (Conc. 50 µM) | other results
C[C@H](NS(=O)(=O)c1ccc(N)cc1)C(=O)NC(=O)Nc1cc(C(F)(F)F)ccc1O [Compound 13] | 0.3±0.1 | −5±3 | +8±0.4 | 1.0 | 0.5±0.1 | −2.5±3.0 | +10±0.6 | 1±0.03 | pharmacologic activity (1 µM): no pharmacologic activity; Activation V1/2 (mV) (Conc. 2 µM): −2±3 mV; Amplitude I/Icon (Conc. 2 µM): 1.0; Inactivation ΔV0.3 (Conc. 20 µM, listed as MC-I-159b): significantly shifted voltage-dependence of inactivation to depolarized potentials; Inactivation ΔV0.3 [1]: shifted the voltage-dependence of inactivation to depolarized potentials; Amplitude I/Icon [1]: did not produce pharmacological block
CN(C(=O)c1cc(C(F)(F)F)ccc1Cl)c1ccccc1 [Compound 19] |  |  |  |  | −0.2±0.08 | 1±3 | −2±1 | 0.7±0.06 | Activation V1/2 (mV) (Conc. 5 µM): 0 mV; Amplitude I/Icon (Conc. 5 µM): 0.9±0.1
COCOc1ccc(C(F)(F)F)cc1NC(=O)NC(=O)[C@H](C)NCc1ccc(Br)cc1 [Compound 9] | −0.1±0.1 | −9.1±2.1 | −3.5±1.5 | 0.5±0.1 |  |  |  |  | 
O=C1NC(=O)c2cc(C(F)(F)F)ccc21 [Compound 23] |  |  |  |  | 0.2±0.1 | −2.3±1.3 | −2±1.2 | 1.0±0.01 | 
COCOc1ccc(C(F)(F)F)cc1NC(=O)NC(=O)[C@H](C)NS(=O)(=O)c1ccc([N+](=O)[O-])cc1 [Compound 15] |  |  |  |  |  |  |  |  | Deactivation Δλ/λcon (Conc. 10 µM): −0.1±0.1; Activation V1/2 (mV) (Conc. 10 µM): −3±3 mV; Inactivation ΔV0.3 (Conc. 10 µM): −11±2; Amplitude I/Icon (Conc. 10 µM): 0.7±0.12; Deactivation Δλ/λcon (Conc. 30 µM): −0.01±0.07; Activation V1/2 (mV) (Conc. 30 µM): 0±0 mV; Inactivation ΔV0.3 (Conc. 30 µM): −10±0; Amplitude I/Icon (Conc. 30 µM): 0.5±0.04
COCOc1ccc(C(F)(F)F)cc1NC(=O)NC(=O)[C@H](C)NC(=O)c1ccc([N+](=O)[O-])cc1 [Compound 12] | −0.1±0.1 | −6.3±2.7 | −7.3±1.9 | 0.6±0.19 |  |  |  |  | 
COCOc1ccc(C(F)(F)F)cc1NC(=O)NC(=O)[C@H](C)NCc1ccc(F)cc1 [Compound 8] | −0.1±0.04 | −12.5±2.5 | −4±8 | 0.1±0.0 |  |  |  |  | 
C[C@H](NCc1ccc(F)cc1)C(=O)NC(=O)Nc1cc(C(F)(F)F)ccc1O [Compound 3] | 1.7±0.3 | −17.3±0.3 | −7.5±4.5 | 0.6±0.14 |  |  |  |  | Deactivation Δλ/λcon (Conc. 2 µM): 1.7±0.3; Activation V1/2 (mV) (Conc. 2 µM): −17.3±0.3 mV; Inactivation ΔV0.3 (Conc. 2 µM): −7.5±4.5
